Laboratory results from PubChem BioAssay (NCI).
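Protocol summary: plate cells (96-well), add compound at 5 concentrations, incubate 48 h, interpolate endpoints linearly. TGI: concentration producing complete growth inhibition.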

Experiments:
Test in all cases: NCI tumour cell line growth inhibition, 48 h
P388 leukemia = test system: P388 leukemia
SN12K1 renal = test system: SN12K1 renal
HOP-18 NSCLC = test system: HOP-18 NSCLC

O=[N+]([O-])c1cnccc1-n1nnc2ccccc21
TGI (P388 leukemia): 30.3 µM | TGI (SN12K1 renal): > 95.5 µM | TGI (HOP-18 NSCLC): > 100 µM
